The structures appear in SMILES notation. pIC50: −log10 of the molar value.

Assay [1] relates to human T-type calcium channel. Put plainly: Whole-cell patch clamp measurement of T-type calcium channel inhibition (barium T-current). The format is cell-based. The conditions noted are these: for Inhibition rate (%): EK293 cell forcibly expressing human T-type calcium channel, 6 cases; for T-type calcium channel inhibitory action (in words): whole-cell patch clamp, in vitro; for Ratio of IC50 value to IC50 value of 6-prenylnaringenin (%): IC50 as percentage of the IC50 of 6-prenylnaringenin, measured as in Example 1. Here is the method: Using a human kidney cell-derived cell line, an EK293 cell, in which a human T-type calcium channel was forcibly expressed, the inhibitory effect of 6-prenylnaringenin on the T-type calcium channel was measured by the whole cell patch clamp method.
In the whole-cell patch clamp method, the following solutions are used as an external solution and an internal solution, the holding potential is set to −80 mV, and the barium current was measured as an inward current flow upon a potential jump from −80 mV to −20 mV. Here, in order to eliminate the influence of the high threshold activated-calcium channel, a value obtained by subtracting the current at 150 ms after the start of stimulation from the peak current was used as a T-channel current (T-current) for data analysis.
External Solution Composition
Aqueous solution containing the following: • 97 mM N-methyl-D-glucamine (NMDG); • 10 mM BaCl2; • 10 mM 4-(2-hydroxyethyl)-1-piperazine ethanesulfonic acid (HEPES); • 40 mM tetraethylammonium chloride (TEA-Cl); and • 5 mM glucose • (pH 7.4). Internal Solution Composition
Aqueous solution containing the following: • 4 mM MgCl2; • 140 mM CsCl; • 10 mM HEPES; and • 5 mM glycol ether diamine tetraacetic acid (EGTA) • (pH 7.2).
The inhibitory effect of the compound of the present invention on the T-type calcium channel was measured in the same manner as in Example 1, except that the compound of the present invention was used instead of 6-prenylnaringenin.

For assay [2], the system named is PSNL-induced hyperalgesia. Kind of assay: Partial sciatic nerve ligation (PSNL)-induced hyperalgesia, pain threshold by von Frey method. The assay is classed as in vivo, ddY male mice. The conditions noted are these: 10 to 30 mg/kg intraperitoneally, mice 7 days after PSNL, versus vehicle group after PSNL. Here is the method:
PSNL-induced hyperalgesia was performed using ddY male mice under inhaled isoflurane anesthesia by incising the skin on the femur of the mouse and exposing ⅓ to ½ of the exposed sciatic nerve was completely ligated with a 8-0 suture. […] The pain threshold was measured by the von Frey method.
Compounds-40, 41, 45 and 47 were suspended in 5% aqueous carboxymethylcellulose and administered intraperitoneally using mice after 7 days of PSNL treatment, which is considered to be a chronic phase in which hyperalgesia is stable, and Pain thresholds were measured every minute. As controls, a group to which a solvent was administered after sham operation and a group to which a solvent and 6-prenylnaringenin were administered after induction of hyperalgesia by PNSL were provided.

As a reminder, the pIC50 is −log10 of the IC50, conventionally taken in molar units. Take `CC(C)=CCc1c(O)cc2c(c1O)C(=O)C[C@@H](c1ccc(O)cc1)O2` [6-prenylnaringenin, 6-Prenylnaringenin, reference compound]: the pIC50 in assay [1] (calculated by GraphPad Prism from the results of Example 1) was 6.10. For the same compound, the figures for the “Inhibition rate (%)” value in assay [1] (compound concentration 300 nM), in assay [1] (compound concentration 1000 nM) and in assay [1] (compound concentration 3000 nM) were 0%, 82.7% and 99.0%, respectively. The “T-type calcium channel inhibitory action (in words)” value in assay [1] is reported as “excellent T-type calcium channel inhibitory action”.
`CC(C)=CCc1c(O)cc2c(c1O)C(=O)CC(c1ccccc1O)O2` (stereo not shown) [Compound-33, 5,7-dihydroxy-2-(2-hydroxy-phenyl)-6-(3-methyl-but-2-enyl)-chroman-4-one]: the “Ratio of IC50 value to IC50 value of 6-prenylnaringenin (%)” value (shortened to “Ratio of IC50 value to IC50 value … (%)”) in assay [1] is on record as 12.2%.
On the same count and under the same terms, the figure for `CC(C)=CCc1c(O)cc2c(c1O)C(=O)CC(c1cccc(O)c1)O2` (stereo not shown) [Compound-34, 5,7-dihydroxy-2-(3-hydroxy-phenyl)-6-(3-methyl-but-2-enyl)-chroman-4-one] is 12.5%; for `CC(C)=CCc1c(O)cc2c(c1O)C(=O)CC(c1ccc(O)c(O)c1)O2` (stereo not shown) [Compound-36, 2-(3,4-dihydroxy-phenyl)-5,7-dihydroxy-6-(3-methyl-but-2-enyl)-chroman-4-one] it is 87.5%.
Still for that read-out and setting: the figure for `CC(C)CCc1c(O)cc2c(c1O)C(=O)CC(c1ccc(O)cc1)O2` (stereo not shown) [Compound-39, 5,7-dihydroxy-2-(4-hydroxy-phenyl)-6-(3-methyl-butyl)-chroman-4-one] is 10.6%.
As to `CCC(=CCc1c(O)cc2c(c1O)C(=O)CC(c1ccc(O)cc1)O2)CC` (stereo not shown) [Compound-40, 6-(3-ethyl-pent-2-enyl)-5,7-dihydroxy-2-(4-hydroxy-phenyl)-chroman-4-one], the “Effect on PSNL-induced hyperalgesia (pain threshold)” value (shortened to “Effect on PSNL-induced hyperalgesia”) in assay [2] is “significantly suppressed hyperalgesia”. For the same compound, in assay [1], the “Ratio of IC50 value to IC50 value … (%)” value amounted to 7.7% and the “T-type calcium channel inhibitory action (in words)” value was “excellent T-type calcium channel inhibitory activity in vitro”.
On to `O=C1CC(c2ccc(O)cc2)Oc2cc(O)c(CC=C3CCCC3)c(O)c21` (stereo not shown) [Compound-41, 6-(2-cyclopentylidene-ethyl)-5,7-dihydroxy-2-(4-hydroxy-phenyl)-chroman-4-one], for which, in assay [2], the “Effect on PSNL-induced hyperalgesia” value was “significantly suppressed hyperalgesia”. Also, in assay [1], the “Ratio of IC50 value to IC50 value … (%)” value was determined as 9.0% and the “T-type calcium channel inhibitory action (in words)” value is “excellent T-type calcium channel inhibitory activity in vitro”.
Regarding `CC(C)=CCc1c(O)cc2c(c1O)C(=O)CC(c1c(O)cccc1O)O2` (stereo not shown) [Compound-42, 2-(2,6-dihydroxy-phenyl)-5,7-dihydroxy-6-(3-methyl-but-2-enyl)-chroman-4-one], the “Ratio of IC50 value to IC50 value … (%)” value in assay [1] was found to be 72.3%.
For the compound `CC(C)=CCc1ccc2c(c1O)C(=O)CC(c1ccccc1O)O2` (stereo not shown) [Compound-43, 5-hydroxy-2-(2-hydroxy-phenyl)-6-(3-methyl-but-2-enyl)-chroman-4-one], the “Ratio of IC50 value to IC50 value … (%)” value in assay [1] stood at 26.6%.
As to `CCC(=CCc1c(O)cc2c(c1O)C(=O)CC(c1ccccc1O)O2)CC` (stereo not shown) [Compound-45, 6-(3-ethyl-pent-2-enyl)-5,7-dihydroxy-2-(2-hydroxy-phenyl)-chroman-4-one], the “Effect on PSNL-induced hyperalgesia” value in assay [2] is listed as “significantly suppressed hyperalgesia”. In assay [1], the “Ratio of IC50 value to IC50 value … (%)” value was determined as 2.3% and the “T-type calcium channel inhibitory action (in words)” value was “excellent T-type calcium channel inhibitory activity in vitro”.
For the compound `CCC(CC)CCc1c(O)cc2c(c1O)C(=O)CC(c1ccc(O)cc1)O2` (stereo not shown) [Compound-46, 6-(3-ethyl-pentyl)-5,7-dihydroxy-2-(4-hydroxy-phenyl)-chroman-4-one], in assay [1], the “Ratio of IC50 value to IC50 value … (%)” value was determined as 15.0%.
Regarding `O=C1CC(c2ccc(O)cc2)Oc2cc(O)c(CCC3CCCC3)c(O)c21` (stereo not shown) [Compound-47, 6-(2-cyclopentyl-ethyl)-5,7-dihydroxy-2-(4-hydroxy-phenyl)-chroman-4-one], in assay [2], the “Effect on PSNL-induced hyperalgesia” value is recorded as “significantly suppressed hyperalgesia”. In assay [1], the “Ratio of IC50 value to IC50 value … (%)” value came out at 8.1% and the “T-type calcium channel inhibitory action (in words)” value was “excellent T-type calcium channel inhibitory activity in vitro”.
Consider `CCCC(=CCc1c(O)cc2c(c1O)C(=O)CC(c1ccc(O)cc1)O2)CCC` (stereo not shown) [Compound-48, 5,7-dihydroxy-2-(4-hydroxy-phenyl)-6-(3-propyl-hex-2-enyl)-chroman-4-one], for which the “Ratio of IC50 value to IC50 value … (%)” value in assay [1] is on record as 54.8%.

Values taken from US11479537B2, “T-type calcium channel inhibitor” (KINKI UNIVERSITY, priority 2017, dated 2022).
